Experimental data: the supplement of paper PMC10307832

Columns and labels:
Test in all cases: relative viability (nuclei count vs DMSO), 5 days (fraction); higher = more cells survive
[1] = compound: C1=CC=C(C(=C1)C2=CC=C(C=C2)C3=CSC4=C3C(=C(C(=O)N4)C#N)O)O + COc1cccc2cc(-c3nc([C@H]4CC[C@H](C(=O)O)CC4)n4ncnc(N)c34)[nH]c12 [OSI-027] (partner 0.5 µM)
Procedure, shortened: (§1)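 The day after seeding in 1536-well plates, lung cancer cell lines were treated by pin tool with a single drug, or with a fixed anchor-drug dose together with five library-drug doses (not always all listed) in √10 steps. After 5 days, a combined fix-and-stain solution (final 0.05% Triton X-100, 1% formaldehyde, 1 ug/ml Hoechst) was added. Nuclei counted on 4× images gave relative viability as treated counts over vehicle counts, reported as the median of duplicate plates.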

[2] = compound: O=C(CCCCCCNC(=O)c1cnc(N(c2ccccc2)c2ccccc2)nc1)NO [Ricolinostat] + COc1cccc2cc(-c3nc([C@H]4CC[C@H](C(=O)O)CC4)n4ncnc(N)c34)[nH]c12 [OSI-027] (partner 0.5 µM)
Procedure, shortened: as §1

[3] = compound: CC1=CN2C(=O)C=C(N=C2C(=C1)C(C)NC3=CC=CC=C3)N4CCOCC4 [TGX 221] + NC(=O)Nc1cc(-c2cccc(F)c2)sc1C(=O)N[C@H]1CCCNC1 [AZD7762] (partner 0.2 µM)
Procedure, shortened: as §1

[4] = compound: O=C(CCCCCCNC(=O)c1cnc(N(c2ccccc2)c2ccccc2)nc1)NO [Ricolinostat] + N=C(N)NC(=N)NCCc1ccccc1 [Phenformin] (partner 250 µM)
Procedure, shortened: as §1

Cell Line	relative viability ([1]; first compound 0.08 µM)	relative viability ([1]; first compound 0.253 µM)	relative viability ([1]; first compound 0.8 µM)	relative viability ([1]; first compound 2.53 µM)	relative viability ([1]; first compound 8 µM)	relative viability ([2]; first compound 0.253 µM)	relative viability ([2]; first compound 0.8 µM)	relative viability ([2]; first compound 2.53 µM)	relative viability ([3]; first compound 0.08 µM)	relative viability ([3]; first compound 0.253 µM)	relative viability ([3]; first compound 0.8 µM)	relative viability ([3]; first compound 2.53 µM)	relative viability ([3]; first compound 8 µM)	relative viability ([4]; first compound 0.253 µM)	relative viability ([4]; first compound 0.8 µM)	relative viability ([4]; first compound 2.53 µM)	relative viability ([2]; first compound 0.08 µM)	relative viability ([4]; first compound 0.08 µM)
NCI-H322M	0.59	0.489	0.502	0.576	0.514	0.598	0.532	0.51	0.578	0.569	0.636	0.571	0.546	0.839	0.767	0.761	–	–
NCI-H358	0.787	0.724	0.758	0.779	0.736	0.802	0.734	0.954	0.497	0.631	0.462	0.58	0.515	0.362	0.424	0.432	0.584	0.265
NCI-H441	0.647	0.669	0.565	0.822	0.646	0.725	0.595	0.59	1.22	1.12	0.925	1.07	1.24	0.956	0.889	0.643	–	–
NCI-H460	0.36	0.755	0.377	0.868	0.462	0.637	0.622	0.596	0.564	0.632	0.559	0.665	0.655	0.512	0.494	0.476	0.507	0.389
NCI-H522	0.606	0.73	0.86	0.771	0.657	0.736	0.665	0.69	0.771	0.81	0.888	0.871	0.904	0.559	0.704	0.829	0.822	0.609
NCI-H596	0.55	0.722	0.692	0.732	0.553	0.82	0.845	0.5	1.05	0.904	1.11	0.942	1.03	0.749	0.7	0.694	0.801	0.836
NCI-H647	0.694	0.578	0.568	0.628	0.362	0.508	0.489	0.543	0.324	0.448	0.407	0.278	0.328	0.512	0.563	0.275	0.546	0.397
NCI-H650	0.474	0.469	0.501	0.587	0.58	0.585	0.503	0.374	0.769	0.902	0.926	1.12	0.904	0.454	0.397	0.281	0.405	0.373
NCI-H727	0.474	0.671	0.668	0.519	0.52	0.671	0.551	0.657	0.492	0.688	0.695	0.592	0.546	0.734	0.529	0.572	0.389	0.342
NCI-H838	0.379	0.394	0.388	0.342	0.354	0.383	0.457	0.519	0.892	0.911	0.877	0.77	0.849	0.689	0.64	0.571	0.302	0.48
NCI-H1355	0.379	0.44	0.43	0.351	0.317	0.477	0.404	0.299	0.691	0.679	0.775	0.65	0.675	0.451	0.427	0.439	0.296	0.412
NCI-H1395	0.501	0.647	0.637	0.644	0.576	0.651	0.613	0.663	0.398	0.383	0.385	0.413	0.39	0.48	0.425	0.463	–	–
NCI-H1437	0.869	1.05	0.868	0.873	0.703	0.864	0.774	0.502	1.11	1.12	1.11	1.07	1.01	0.561	0.292	0.23	0.729	0.23
NCI-H1651	0.66	0.76	0.715	0.576	0.448	0.651	0.603	0.618	0.384	0.468	0.439	0.414	0.368	0.352	0.311	0.365	0.607	0.318
NCI-H1666	0.804	1.09	0.901	0.777	0.745	0.884	0.845	0.691	0.784	0.861	0.923	0.8	0.802	0.572	0.547	0.521	0.716	0.481
NCI-H1734	0.642	0.608	0.618	0.595	0.432	0.673	0.632	0.617	0.526	0.464	0.499	0.609	0.496	0.452	0.351	0.466	0.473	0.35
NCI-H1755	0.762	0.848	0.616	0.686	0.751	0.791	0.717	0.62	0.338	0.391	0.399	0.409	0.371	0.6	0.608	0.604	0.538	0.45
